From patent publication US9963445B2, “Chemical compounds” (SYNGENTA PARTICIPATIONS AG, priority 2013, dated 2018)

Tests used:
Assay type in all cases: in vivo
Amaranthus retroflexus [1] = assay: Pre-emergence herbicidal activity, glasshouse pot test; details: pre-emergence spray, rate 1000 g/ha, evaluated after 13 days, scale 0-5
Description: (§1) Seeds of a variety of test species were sown in standard soil in pots. After cultivation for one day (pre-emergence) under controlled conditions in a glasshouse (at 24/16° C., day/night; 14 hours light; 65% humidity), the plants were sprayed with an aqueous spray solution derived from the formulation of the technical active ingredient in acetone/water (50:50) solution containing 0.5% Tween 20 (polyoxyethelyene sorbitan monolaurate, CAS RN 9005-64-5). The test plants were then grown in a glasshouse under controlled conditions (at 24/16° C., day/night; 14 hours light; 65% humidity) and watered twice daily. After 13 days, the test was evaluated (5=total damage to plant; 0=no damage to plant).
(§2) ABUTH=Abutilon theophrasti; SOLNI=Solanum nigrum; AMARE=Amaranthus retroflexus; SETFA=Setaria faberi; ALOMY=Alopecurus myosuroides; ECHCG=Echinochloa crus-galli, ZEAMX=zea mays.

Echinochloa crus-galli [2] = assay: as above; details: pre-emergence spray, rate 1000 g/ha, evaluated after 13 days, scale 0-5
Description: as §1, §2

Alopecurus myosuroides [3] = assay: as above; details: pre-emergence spray, rate 1000 g/ha, evaluated after 13 days, scale 0-5
Description: as §1, §2

Setaria faberi [4] = assay: as above; details: pre-emergence spray, rate 1000 g/ha, evaluated after 13 days, scale 0-5
Description: as §1, §2

Amaranthus retroflexus [5] = assay: Post-emergence herbicidal activity, glasshouse pot test; parameters: key: 0 = no damage to plant, 5 = total damage to plant; details: Application post-emergence, rate 1000 g/ha, evaluated after 13 days
Description: (§3) Seeds of a variety of test species were sown in standard soil in pots. After 8 days cultivation (post-emergence) under controlled conditions in a glasshouse (at 24/16° C., day/night; 14 hours light; 65% humidity), the plants were sprayed with an aqueous spray solution derived from the formulation of the technical active ingredient in acetone/water (50:50) solution containing 0.5% Tween 20 (polyoxyethelyene sorbitan monolaurate, CAS RN 9005-64-5). The test plants were then grown in a glasshouse under controlled conditions (at 24/16° C., day/night; 14 hours light; 65% humidity) and watered twice daily. After 13 days, the test was evaluated (5=total damage to plant; 0=no damage to plant).
as §2

Echinochloa crus-galli [6] = assay: as above; parameters: key: 0 = no damage to plant, 5 = total damage to plant; details: Application post-emergence, rate 1000 g/ha, evaluated after 13 days
Description: as §3, §2

zea mays [7] = assay: as above; parameters: key: 0 = no damage to plant, 5 = total damage to plant; details: Application post-emergence, rate 1000 g/ha, evaluated after 13 days
Description: as §3, §2

Alopecurus myosuroides [8] = assay: as above; parameters: key: 0 = no damage to plant, 5 = total damage to plant; details: Application post-emergence, rate 1000 g/ha, evaluated after 13 days
Description: as §3, §2

Abutilon theophrasti [9] = assay: as above; parameters: key: 0 = no damage to plant, 5 = total damage to plant; details: Application post-emergence, rate 1000 g/ha, evaluated after 13 days
Description: as §3, §2

Setaria faberi [10] = assay: as above; parameters: key: 0 = no damage to plant, 5 = total damage to plant; details: Application post-emergence, rate 1000 g/ha, evaluated after 13 days
Description: as §3, §2

zea mays [11] = assay: Pre-emergence herbicidal activity, glasshouse pot test; details: pre-emergence spray, rate 1000 g/ha, evaluated after 13 days, scale 0-5
Description: as §1, §2

Abutilon theophrasti [12] = assay: as above; details: pre-emergence spray, rate 1000 g/ha, evaluated after 13 days, scale 0-5
Description: as §1, §2

`COC1=C(C)C(O)N(c2cc(C)c(C(=O)NC(C)(C)C)cn2)C1=O` (stereo not shown) [AI33] was tested, and the “AMARE damage score, application pre-emergence” value (shortened to “AMARE damage score”) (Amaranthus retroflexus [1]) was 5, the “ECHCG damage score, application pre-emergence” value (from here on “ECHCG damage score”) (Echinochloa crus-galli [2]) was 4 and the “ALOMY damage score, application pre-emergence” value (“ALOMY damage score” for short) (Alopecurus myosuroides [3]) was 4. For the same compound, the “SETFA damage score, application pre-emergence” value (“SETFA damage score” for short) (Setaria faberi [4]) was 5, the “AMARE herbicidal damage score” value (Amaranthus retroflexus [5]) was 5 and the “ECHCG herbicidal damage score” value (Echinochloa crus-galli [6]) was 5. The “ZEAMX herbicidal damage score” value (zea mays [7]) was 4, the “ALOMY herbicidal damage score” value (Alopecurus myosuroides [8]) was 5 and the “ABUTH herbicidal damage score” value (Abutilon theophrasti [9]) was 5. For the same compound, the “SETFA herbicidal damage score” value (Setaria faberi [10]) was 5.
In the case of `CC1=C(Cl)C(=O)N(c2cc(C(F)(F)F)c(-c3ccc(Cl)cc3)cn2)C1O` (stereo not shown) [AF90], the “AMARE damage score” value (Amaranthus retroflexus [1]) is reported as 2, the “ECHCG damage score” value (Echinochloa crus-galli [2]) is reported as 0 and the “ZEAMX damage score, application pre-emergence” value (“ZEAMX damage score” for short) (zea mays [11]) is reported as 0. For the same compound, the “ABUTH damage score, application pre-emergence” value (“ABUTH damage score” for short) (Abutilon theophrasti [12]) was 0, the “SETFA damage score” value (Setaria faberi [4]) was 3 and the “AMARE herbicidal damage score” value (Amaranthus retroflexus [5]) was 5. For the same compound, the “ABUTH herbicidal damage score” value (Abutilon theophrasti [9]) was 4 and the “SETFA herbicidal damage score” value (Setaria faberi [10]) was 5.
`COC1=C(C)C(O)N(c2cc(C(C)C)c(Cl)nn2)C1=O` (stereo not shown) [BI28] was tested, and the “AMARE damage score” value (Amaranthus retroflexus [1]) was 4, the “ECHCG damage score” value (Echinochloa crus-galli [2]) was 5 and the “ZEAMX damage score” value (zea mays [11]) was 3. The “ALOMY damage score” value (Alopecurus myosuroides [3]) was 4, the “ABUTH damage score” value (Abutilon theophrasti [12]) was 4 and the “SETFA damage score” value (Setaria faberi [4]) was 5. The “AMARE herbicidal damage score” value (Amaranthus retroflexus [5]) was 5, the “ZEAMX herbicidal damage score” value (zea mays [7]) was 3 and the “ALOMY herbicidal damage score” value (Alopecurus myosuroides [8]) was 5. The “ABUTH herbicidal damage score” value (Abutilon theophrasti [9]) was 5.
“1-(6-chloropyrimidin-4-yl)-2-hydroxy-4-methoxy-3-methyl-2H-pyrrol-5-one [CI2]” was tested, and the “ECHCG damage score” value (Echinochloa crus-galli [2]) was 4, the “ZEAMX damage score” value (zea mays [11]) was 1 and the “ALOMY damage score” value (Alopecurus myosuroides [3]) was 2. For the same compound, the “ABUTH damage score” value (Abutilon theophrasti [12]) was 1 and the “SETFA damage score” value (Setaria faberi [4]) was 4.
With `COC1=C(C)C(O)N(c2cc(C(C)(C)C)ncn2)C1=O` (stereo not shown) [CI1] the “AMARE damage score” value (Amaranthus retroflexus [1]) was 5, the “ECHCG damage score” value (Echinochloa crus-galli [2]) was 4 and the “ZEAMX damage score” value (zea mays [11]) was 4. For the same compound, the “ALOMY damage score” value (Alopecurus myosuroides [3]) was 4, the “ABUTH damage score” value (Abutilon theophrasti [12]) was 5 and the “SETFA damage score” value (Setaria faberi [4]) was 5.
For `CC1=C(Cl)C(=O)N(c2cc(C(C)C)c(Cl)nn2)C1O` (stereo not shown) [BF15], the “AMARE damage score” value (Amaranthus retroflexus [1]) was 3, the “ECHCG damage score” value (Echinochloa crus-galli [2]) was 5 and the “ZEAMX damage score” value (zea mays [11]) was 2. The “ALOMY damage score” value (Alopecurus myosuroides [3]) was 4, the “ABUTH damage score” value (Abutilon theophrasti [12]) was 4 and the “SETFA damage score” value (Setaria faberi [4]) was 5. For the same compound, the “AMARE herbicidal damage score” value (Amaranthus retroflexus [5]) was 5, the “ZEAMX herbicidal damage score” value (zea mays [7]) was 3 and the “ALOMY herbicidal damage score” value (Alopecurus myosuroides [8]) was 5. The “ABUTH herbicidal damage score” value (Abutilon theophrasti [9]) was 5.
In the case of `COC1=C(C)C(O)N(c2cc(C(C)(F)F)ncn2)C1=O` (stereo not shown) [CI8], the “AMARE damage score” value (Amaranthus retroflexus [1]) is reported as 5, the “ECHCG damage score” value (Echinochloa crus-galli [2]) is reported as 4 and the “ZEAMX damage score” value (zea mays [11]) is reported as 2. The “ALOMY damage score” value (Alopecurus myosuroides [3]) was 3, the “ABUTH damage score” value (Abutilon theophrasti [12]) was 5 and the “SETFA damage score” value (Setaria faberi [4]) was 5.
With `COC1=C(C)C(O)N(c2cc(Cl)c(C(=O)NC(C)(C)C)cn2)C1=O` (stereo not shown) [AI18] the “AMARE damage score” value (Amaranthus retroflexus [1]) was 5, the “ECHCG damage score” value (Echinochloa crus-galli [2]) was 5 and the “ALOMY damage score” value (Alopecurus myosuroides [3]) was 4. The “SETFA damage score” value (Setaria faberi [4]) was 5, the “AMARE herbicidal damage score” value (Amaranthus retroflexus [5]) was 5 and the “ECHCG herbicidal damage score” value (Echinochloa crus-galli [6]) was 5. For the same compound, the “ZEAMX herbicidal damage score” value (zea mays [7]) was 4, the “ALOMY herbicidal damage score” value (Alopecurus myosuroides [8]) was 5 and the “ABUTH herbicidal damage score” value (Abutilon theophrasti [9]) was 5. For the same compound, the “SETFA herbicidal damage score” value (Setaria faberi [10]) was 5.
`COC1=C(C)C(O)N(c2cc(C(C)(C)F)ncn2)C1=O` (stereo not shown) [CI7] was tested, and the “AMARE damage score” value (Amaranthus retroflexus [1]) was 5, the “ECHCG damage score” value (Echinochloa crus-galli [2]) was 4 and the “ZEAMX damage score” value (zea mays [11]) was 1. For the same compound, the “ALOMY damage score” value (Alopecurus myosuroides [3]) was 3, the “ABUTH damage score” value (Abutilon theophrasti [12]) was 5 and the “SETFA damage score” value (Setaria faberi [4]) was 5.
`COC1=C(C)C(O)N(c2cc(NC(C)C)ncn2)C1=O` (stereo not shown) [CI4, N2-hydroxy-1-[6-(isopropylamino)pyrimidin-4-yl]-4-methoxy-3-methyl-2H-pyrrol-5-one] was tested, and the “AMARE damage score” value (Amaranthus retroflexus [1]) was 0, the “ECHCG damage score” value (Echinochloa crus-galli [2]) was 0 and the “ZEAMX damage score” value (zea mays [11]) was 0. For the same compound, the “ALOMY damage score” value (Alopecurus myosuroides [3]) was 0, the “ABUTH damage score” value (Abutilon theophrasti [12]) was 0 and the “SETFA damage score” value (Setaria faberi [4]) was 0.
For `COC1=C(C)C(O)N(c2cc(C(C)(C)C#N)ncn2)C1=O` (stereo not shown) [CI6], the “AMARE damage score” value (Amaranthus retroflexus [1]) was 5, the “ECHCG damage score” value (Echinochloa crus-galli [2]) was 5 and the “ZEAMX damage score” value (zea mays [11]) was 3. For the same compound, the “ALOMY damage score” value (Alopecurus myosuroides [3]) was 3, the “ABUTH damage score” value (Abutilon theophrasti [12]) was 5 and the “SETFA damage score” value (Setaria faberi [4]) was 5.
With `COC(=O)c1cnc(N2C(=O)C(OC)=C(C)C2O)cc1Cl` (stereo not shown) [AI21] the “AMARE damage score” value (Amaranthus retroflexus [1]) was 5, the “ECHCG damage score” value (Echinochloa crus-galli [2]) was 0 and the “ALOMY damage score” value (Alopecurus myosuroides [3]) was 0. The “SETFA damage score” value (Setaria faberi [4]) was 0, the “AMARE herbicidal damage score” value (Amaranthus retroflexus [5]) was 5 and the “ECHCG herbicidal damage score” value (Echinochloa crus-galli [6]) was 3. For the same compound, the “ZEAMX herbicidal damage score” value (zea mays [7]) was 1, the “ALOMY herbicidal damage score” value (Alopecurus myosuroides [8]) was 1 and the “ABUTH herbicidal damage score” value (Abutilon theophrasti [9]) was 5. The “SETFA herbicidal damage score” value (Setaria faberi [10]) was 4.
For `COC1=C(C)C(O)N(c2cc(N(C)C)ncn2)C1=O` (stereo not shown) [CI9], the “AMARE damage score” value (Amaranthus retroflexus [1]) was 3, the “ECHCG damage score” value (Echinochloa crus-galli [2]) was 1 and the “ZEAMX damage score” value (zea mays [11]) was 0. For the same compound, the “ALOMY damage score” value (Alopecurus myosuroides [3]) was 1, the “ABUTH damage score” value (Abutilon theophrasti [12]) was 2 and the “SETFA damage score” value (Setaria faberi [4]) was 1.
With `COC1=C(C)C(O)N(c2cc(C(C)(C)C)c(Cl)nn2)C1=O` (stereo not shown) [BI32] the “AMARE damage score” value (Amaranthus retroflexus [1]) was 3, the “ECHCG damage score” value (Echinochloa crus-galli [2]) was 5 and the “ZEAMX damage score” value (zea mays [11]) was 4. For the same compound, the “ALOMY damage score” value (Alopecurus myosuroides [3]) was 4, the “ABUTH damage score” value (Abutilon theophrasti [12]) was 4 and the “SETFA damage score” value (Setaria faberi [4]) was 5. For the same compound, the “AMARE herbicidal damage score” value (Amaranthus retroflexus [5]) was 5, the “ZEAMX herbicidal damage score” value (zea mays [7]) was 4 and the “ALOMY herbicidal damage score” value (Alopecurus myosuroides [8]) was 5. The “ABUTH herbicidal damage score” value (Abutilon theophrasti [9]) was 5.
`COC1=C(C)C(O)N(c2cc(C(C)C)c(C(=O)NC(C)(C)C)cn2)C1=O` (stereo not shown) [AI30] was tested, and the “AMARE damage score” value (Amaranthus retroflexus [1]) was 5, the “ABUTH damage score” value (Abutilon theophrasti [12]) was 5 and the “AMARE herbicidal damage score” value (Amaranthus retroflexus [5]) was 5. The “ECHCG herbicidal damage score” value (Echinochloa crus-galli [6]) was 5, the “ABUTH herbicidal damage score” value (Abutilon theophrasti [9]) was 5 and the “SETFA herbicidal damage score” value (Setaria faberi [10]) was 5.
